Activity calls are given as the source filed them. The calls are words filed in the database; no cut-off is given here.
Legend:
HeLa = assay: Cytotoxicity against human HeLa cells assessed as reduction in cell viability after 24 hrs by MTT assay; format: functional, cell-based
HepG2 [1] = assay: Cytotoxicity against human HepG2 cells assessed as reduction in cell viability after 24 hrs by MTT assay; format: functional, cell-based; conditions: for IC50: HepG2, 24 h
THP-1 = assay: Cytotoxicity against human THP1 cells assessed as reduction in cell viability after 24 hrs by MTT assay; format: functional, cell-based; conditions: for IC50: THP-1, 24 h
L02 = assay: Cytotoxicity against human LO2 cells assessed as reduction in cell viability after 24 hrs by MTT assay; format: cell-based; conditions: L02, 24 h
K562 = assay: Cytotoxicity against human K562 cells assessed as reduction in cell viability after 24 hrs by MTT assay; format: functional, cell-based; conditions: for IC50: K562, 24 h
Mus musculus = assay: Toxicity in Balb/c nude mouse xenografted with human HepG2 cells assessed as change in body weight at 10 mg/kg/day, ip daily for 20 days measured every 2 days during compound dosing; format: organism-based; conditions: in vivo
HepG2 [2] = assay: Cytotoxicity against human HepG2 cells assessed as cell morphology disruption at 10 mg/ml after 4 hrs by Hoechst 33342 staining based confocal laser scanning microscopic method; format: functional
HepG2 [3] = assay: Upregulation of Bax protein expression in human HepG2 cells at 50 uM after 3 hrs by western blot analysis; format: functional, cell-based
[4] = Drug uptake in human HepG2 cell nucleus at 10 mg/ml after 1 to 3 hrs by Hoechst 33342 staining based confocal laser scanning microscopic method; format: ADME, subcellular
[5] = Drug uptake in human HepG2 cell nucleus at 10 mg/ml after 4 hrs by Hoechst 33342 staining based confocal laser scanning microscopic method; format: ADME, subcellular; conditions: hepg2, 4 h
[6] = Drug uptake in human HepG2 cell cytoplasm at 10 mg/ml after 1 to 3 hrs by Hoechst 33342 staining based confocal laser scanning microscopic method; format: ADME, subcellular
HepG2 [7] = assay: Induction of apoptosis in human HepG2 cells after 24 hrs by Annexin V-FITC/propidium iodide staining based flow cytometry; format: functional, cell-based
HepG2 [8] = assay: Antitumor activity against human HepG2 cells xenografted in Balb/c nude mouse assessed as tumor growth inhibition at 10 mg/kg/day, ip daily for 20 days measured on day 21; format: functional, organism-based
HepG2 [9] = assay: Downregulation of Bcl2 protein expression in human HepG2 cells at 50 uM after 3 hrs by western blot analysis; format: functional, cell-based
[10] = Drug uptake in human HepG2 cell cytoplasm at 10 mg/ml after 4 hrs by Hoechst 33342 staining based confocal laser scanning microscopic method; format: ADME, subcellular; conditions: hepg2, 4 h
HepG2 [11] = assay: Antitumor activity against human HepG2 cells xenografted in Balb/c nude mouse assessed as tumor growth inhibition at 1 mg/kg/2 days, ip for 20 days measured on day 21; format: functional, organism-based

Row | SMILES | IC50 (HeLa) [µM] | IC50 (HepG2 [1]) [µM] | IC50 (THP-1) [µM] | IC50 (L02) [µM] | IC50 (K562) [µM] | other results
1 | CN1C/C(=C\c2ccc(F)cc2)C(=O)/C(=C/c2ccc(C#N)cc2)C1 | 10.2 | 6.14 | 5.03 | 20.9 | 11.2 | –
2 | CN1C/C(=C\c2ccc(C(C)(C)C)cc2)C(=O)/C(=C/c2ccccc2F)C1 | 15.5 | 9.12 | 13.4 | 25.8 | 18.2 | –
3 | CN1C/C(=C\c2ccc(Br)cc2)C(=O)/C(=C/c2cccc([N+](=O)[O-])c2)C1 | 11.9 | 8.8 | 7.69 | 9.85 | > 20 | –
4 | COc1cc(/C=C2\CN(C)C/C(=C\c3ccccc3F)C2=O)cc(OC)c1OC | 3.22 | 0.67 | 0.64 | 12.1 | 4.34 | Activity (Mus musculus): Non-Toxic; Activity (HeLa): Dose-dependent effect; Activity (HepG2 [2]): Active; Activity (HepG2 [1]): Dose-dependent effect; Activity (HepG2 [3]): Active; Drug uptake [4]: Not Active; Activity (THP-1): Dose-dependent effect; Drug uptake [5]: Active; Activity (K562): Dose-dependent effect; Drug uptake [6]: Active; Activity (HepG2 [7]): Dose-dependent effect; TGI (HepG2 [8]): Active; Activity (HepG2 [9]): Active; Drug uptake [10]: Not Active
5 | COc1cc(/C=C2\CN(C)C/C(=C\c3ccc(Cl)cc3Cl)C2=O)cc(OC)c1OC | > 20 | 8.8 | 5.02 | 13.4 | > 20 | –
6 | COc1cc(/C=C2\CN(C)C/C(=C\c3ccccc3F)C2=O)cc(OC)c1 | 5.45 | 1.24 | 1.17 | 11.9 | 6.32 | –
7 | CN1C/C(=C\c2ccc(C(F)(F)F)cc2)C(=O)/C(=C/c2ccccc2F)C1 | 6.56 | 4.14 | 5.93 | 18.6 | 6.34 | –
8 | CN1C/C(=C\c2ccc(Cl)cc2)C(=O)/C(=C/c2cccc([N+](=O)[O-])c2)C1 | > 20 | 8.21 | 7.87 | > 20 | > 20 | –
9 | COc1cc(/C=C2\CN(C)C/C(=C\c3ccc(C#N)cc3)C2=O)cc(OC)c1 | 3.42 | 0.88 | 0.94 | 14 | 4.65 | –
10 | CN1C/C(=C\c2cccc([N+](=O)[O-])c2)C(=O)/C(=C/c2ccccc2F)C1 | 2.34 | 1.08 | 1.01 | 13.5 | 3.89 | –
11 | COc1cc(/C=C2\CN(C)C/C(=C\c3cccc([N+](=O)[O-])c3)C2=O)cc(OC)c1 | 2.56 | 1.84 | 1.77 | 10.8 | 4.42 | –
12 | CN1C/C(=C\c2ccc(C#N)cc2)C(=O)/C(=C/c2ccc(Cl)cc2Cl)C1 | 7.76 | 6.25 | 1.91 | 10.8 | 11.9 | –
13 | CN1C/C(=C\c2ccc(C#N)cc2)C(=O)/C(=C/c2ccccc2F)C1 | 1.34 | 0.59 | 0.81 | 11 | 2.67 | –
14 | COc1ccc(/C=C2\CN(C)C/C(=C\c3ccccc3F)C2=O)cc1OC | 14.3 | 8.76 | 11.2 | 10.5 | 18 | –
15 | COc1cc(/C=C2\CN(C)C/C(=C\c3ccc(F)cc3)C2=O)cc(OC)c1 | 10.2 | 6.14 | 5.04 | 21.9 | 11.2 | –
16 | CN1C/C(=C\c2ccc(C(F)(F)F)cc2)C(=O)/C(=C/c2cccc([N+](=O)[O-])c2)C1 | 3.56 | 1.04 | 0.97 | 12.4 | 4.78 | Activity (HeLa): Dose-dependent effect; Activity (HepG2 [1]): Dose-dependent effect; Activity (HepG2 [3]): Active; Activity (THP-1): Dose-dependent effect; Activity (K562): Dose-dependent effect; Activity (HepG2 [9]): Active
17 | COc1cc(/C=C2\CN(C)C/C(=C\c3ccc(Cl)cc3)C2=O)cc(OC)c1OC | > 20 | 8.25 | 7.2 | 14 | > 20 | –
18 | CN1C/C(=C\c2ccc(C#N)cc2)C(=O)/C(=C/c2ccc(C(F)(F)F)cc2)C1 | 3.21 | 0.98 | 1.43 | 17.2 | 4.01 | –
19 | COc1cc(/C=C2\CN(C)C/C(=C\c3ccc(Cl)c(Cl)c3)C2=O)cc(OC)c1OC | 13.5 | 6.96 | 5.33 | 18.4 | 16.1 | –

Row | SMILES | IC50 (HeLa) [µM] | IC50 (HepG2 [1]) [µM] | IC50 (THP-1) [µM] | IC50 (L02) [µM] | IC50 (K562) [µM] | other results
20 | COc1cc(/C=C2\CN(C)C/C(=C\c3ccc(Cl)cc3Cl)C2=O)cc(OC)c1 | 7.76 | 6.25 | 6.07 | 18.8 | 11.9 | –
21 | CN1C/C(=C\c2ccc(F)cc2)C(=O)/C(=C/c2cccc([N+](=O)[O-])c2)C1 | 6.25 | 9.34 | 7.16 | 17.6 | 11.2 | –
22 | COc1cc(/C=C2\CN(C)C/C(=C\c3ccc(Cl)c(Cl)c3)C2=O)cc(OC)c1 | 6.9 | 3.84 | 3.26 | 10.6 | 9.49 | –
23 | COc1cc(/C=C2\CN(C)C/C(=C\c3ccc(Cl)cc3)C2=O)cc(OC)c1 | 11.2 | 5.95 | 5.86 | 18.9 | 13.3 | –
24 | CN1C/C(=C\c2cccc(Br)c2)C(=O)/C(=C/c2cccc([N+](=O)[O-])c2)C1 | 11.1 | 4.89 | 4.03 | 8.07 | 12.2 | –
25 | COc1cc(/C=C2\CN(C)C/C(=C\c3ccc(F)cc3)C2=O)cc(OC)c1OC | 7.25 | 7.34 | 6.13 | 10.7 | 10.2 | –
26 | COc1cccc2c1C(=O)c1c(O)c3c(c(O)c1C2=O)C[C@@](O)(C(=O)CO)C[C@@H]3O[C@H]1C[C@H](N)[C@H](O)[C@H](C)O1 [DOXORUBICIN] | 2.23 | 0.68 | 0.67 | 6.93 | – | TGI (HepG2 [11]): Active
27 | COc1cc(/C=C2\CN(C)C/C(=C\c3ccc(C#N)cc3)C2=O)cc(OC)c1OC | 3.42 | 1.14 | 0.82 | 18.6 | 4.29 | Activity (HeLa): Dose-dependent effect; Activity (HepG2 [1]): Dose-dependent effect; Activity (HepG2 [3]): Active; Activity (THP-1): Dose-dependent effect; Activity (K562): Dose-dependent effect; Activity (HepG2 [9]): Active
28 | COc1cc(/C=C2\CN(C)C/C(=C\c3ccc(Br)cc3)C2=O)cc(OC)c1OC | 11.9 | 6.8 | 5.33 | 15.4 | 12.4 | –
29 | CN1C/C(=C\c2ccc(Cl)cc2)C(=O)/C(=C/c2ccc(C#N)cc2)C1 | 11.2 | 5.95 | 3.18 | 16.2 | 13.3 | –
30 | COc1cc(/C=C2\CN(C)C/C(=C\c3cccc([N+](=O)[O-])c3)C2=O)cc(OC)c1OC | 5.54 | 1.89 | 0.89 | 13.6 | 4.2 | –
31 | CN1C/C(=C\c2cccc([N+](=O)[O-])c2)C(=O)/C(=C/c2ccc(Cl)cc2Cl)C1 | 8.9 | 4.8 | 3.56 | 14 | 12.4 | –
32 | COc1cc(/C=C/C(=O)CC(=O)/C=C/c2ccc(O)c(OC)c2)ccc1O [CURCUMIN] | 31.9 | 13.8 | 22.5 | 25.7 | 23.1 | –
33 | CN1C/C(=C\c2ccc(Br)cc2)C(=O)/C(=C/c2ccc(C#N)cc2)C1 | 5.9 | 4.84 | 4.4 | 10.5 | 7.42 | –
34 | COc1cc(/C=C2\CN(C)C/C(=C\c3ccc(Br)cc3)C2=O)cc(OC)c1 | 5.9 | 4.84 | 4.27 | 21.3 | 7.42 | –
35 | COc1cc(/C=C2\CN(C)C/C(=C\c3cc(OC)c(OC)c(OC)c3)C2=O)cc(OC)c1 | 2.3 | 0.89 | 0.72 | 14.6 | 3.47 | Activity (HeLa): Dose-dependent effect; Activity (HepG2 [1]): Dose-dependent effect; Activity (HepG2 [3]): Active; Activity (THP-1): Dose-dependent effect; Activity (K562): Dose-dependent effect; Activity (HepG2 [9]): Active
36 | CN1C/C(=C\c2cccc([N+](=O)[O-])c2)C(=O)/C(=C/c2ccc(Cl)c(Cl)c2)C1 | 9.12 | 5.96 | 5.02 | 14.8 | 15.5 | –
37 | COc1ccc(/C=C2\CN(C)C/C(=C\c3ccccc3F)C2=O)cc1 | 23.4 | 12.2 | 15.4 | 22.1 | 18.4 | –

Source: ChEMBL document CHEMBL4145528, “Novel dissymmetric 3,5-bis(arylidene)-4-piperidones as potential antitumor agents with biological evaluation in vitro and in vivo” (Eur J Med Chem, 2018)
